Measured values reported in patent US20250282895A1, “PHARMACEUTICAL COMPOSITIONS OF CHEMOTHERAPEUTIC AGENTS BASED ON BETA-S[…]-AMINO ACID DERIVATIVES” (priority 2021, published 2025).
Counter-ions that a name gives are not always drawn.

Assay: Comparative stability, Formulation 4 (based on Treanda, mannitol)
Assay type: physicochemical
Experimental: The stability of Compound (1c) either as the HCl salt or as the free base was compared to the stability of melphalan HCl and/or bendamustine HCl in various pharmaceutical formulations and at different concentrations and at temperatures of 0° C. or 25° C.
The stability of the compounds in the pharmaceutical formulations was determined at concentrations within the range from 0.4 mg/mL to 0.5 mg/mL, from 0.9 mg/mL to 1.1 mg/mL, and from 1.8 mg/mL to 2.1 mg/mL.
The amount of the active pharmaceutical ingredient (API) (Compound (1c), melphalan or bendamustine) in the pharmaceutical formulations at different times during storage was determined using HPLC/UV as described in detail for Example 4 and Example 5.
Treanda® is an injectable formulation of bendamustine hydrochloride, 1H-benzimidazole-2-butanoic acid, 5-[bis(2-chloroethyl)amino]-1-methyl-, 4-(5-(bis(2-chloroethyl)amino)-1-methyl-1H-benzo[d]imidazol-2-yl) butanoic acid monohydrochloride approved by the FDA. Treanda® for injection is provided in a vial containing either 25 or 100 mg of bendamustine HCl as a white to off-white lyophilized powder. Each vial contains either 25 mg or 100 mg of bendamustine hydrochloride and 42.5 mg or 170 mg of mannitol, USP, which is reconstituted in either 0.9% sodium chloride injection, USP, or 2.5% dextrose/0.45% sodium chloride solution injection, USP to a final concentration of 0.2 mg/mL-0.6 mg/mL and adjusted to a pH from 2.5 to 3.5.
A series of 12 mL glass vials each containing 12.5 mg (0.0317 mmol) of bendamustine mono-hydrochloride salt (C16H21C12N3O2·HCl, 394.72 g/mol; MedKoo, 200470) (corresponding to 11.3 mg of bendamustine as the free base) were prepared through weighing out the commercial compound into the vials. To each of the vials either containing bendamustine mono-hydrochloride salt was added 21.3 mg (0.117 mmol) of D-mannitol (C6H14O6, MW 182.17 g/mol; SigmaAldrich, M1902). The mixtures were dissolved in 2.0 mL of double distilled water (dd-H2O) (Arrowhead), the clear colorless solutions were frozen at −78° C. (dry ice/acetone bath), and the solvents were lyophilized off at about 100 mTorr within about 16 h to afford colorless solids.
A stock solution was prepared by dissolving 85.0 mg (0.255 mmol) of Compound (1c) (free base) and 170.4 mg of D-mannitol (0.935 mmol) (C6H14O6, MW 182.17 g/mol; SigmaAldrich, M1902), and 0.503 mL of 0.5072 M aq. HCl (0.255 mmol, 1.0 eq.) (Fluka, 318957) in about 16.0 mL of a mixture of acetonitrile/water (1:1, v/v) with vortexing in clean graduated glass cylinder (25 mL) to afford a stock solution of Compound (1c) as a mono-HCl salt of a concentration of 5.313 mg/mL and a D-mannitol concentration of 10.65 mg/mL. This solution was filtered through a 0.22 μm PTFE syringe filter into a clean 25 mL Erlenmeyer flask. Aliquots of 2.0 mL (2× 1.0 mL; 2× 5.313 mg) of this stock solution were rapidly pipetted into clean 12 mL scintillation vials. The aliquots were frozen at −78° C. (dry ice/acetone bath) and lyophilized at about 100 mTorr for about 16 hours to provide test vials each containing 11.8 mg (0.0319 mmol) of Compound (1c) mono-hydrochloride salt (mono-HCl salt) (corresponding to 10.6 mg of Compound (1c) as a free base) and 21.3 mg (0.117 mmol) of D-mannitol as a colorless powdery solid.
The materials in the vials were dissolved 2.5 mL of double-distilled water (dd-H2O) (Arrowhead) to provide clear colorless, non-viscous stock solutions of a concentration of 4.24 mg/mL of Compound (1c) as the monohydrochloride salt or 4.54 mg/mL of bendamustine as the mono-hydrochloride salt, respectively.
1.0 mL of the stock solution containing 4.24 mg/mL of Compound (1c) as the monohydrochloride salt was diluted with 9.0 mL of 0.9% saline to afford 10.0 mL of a test solution of a concentration of 0.424 mg/mL of Compound (1c) as the monohydrochloride salt and with a pH of about 4. […]

## Cc1ccc(N(CCCl)CCCl)cc1C[C@H](N)CC(=O)O [Compound (1c)•HCl, (S)-3-amino-4-(5-(bis(2-chloroethyl)amino)-2-methylphenyl) butanoic acid mono hydrochloride salt]
Formulation 4, 0° C., 0.5 hours, 0.4-0.5 mg/mL, pH 4-5 (bendamustine), pH 4 (Compound (1c)•HCl)
  % API: 92%
Formulation 4, 0° C., 0.5 hours, 0.9-1.1 mg/mL, pH 4
  % API: 92%
Formulation 4, 0° C., 0.5 hours, 1.8-2.1 mg/mL, pH 4
  % API: 93%
Formulation 4, 0° C., 2.0 hours, 0.4-0.5 mg/mL, pH 4-5 (bendamustine), pH 4 (Compound (1c)•HCl)
  % API: 78%
Formulation 4, 0° C., 2.0 hours, 0.9-1.1 mg/mL, pH 4
  % API: 73%
Formulation 4, 0° C., 2.0 hours, 1.8-2.1 mg/mL, pH 4
  % API: 80%
Formulation 4, 25° C., 0.5 hours, 0.4-0.5 mg/mL, pH 4-5 (bendamustine), pH 4 (Compound (1c)•HCl)
  % API: 95%
Formulation 4, 25° C., 0.5 hours, 0.9-1.1 mg/mL, pH 4-5 (bendamustine), pH 4 (Compound (1c)•HCl)
  % API: 95%
Formulation 4, 25° C., 0.5 hours, 1.8-2.1 mg/mL, pH 4-5 (bendamustine), pH 4 (Compound (1c)•HCl)
  % API: 92%
Formulation 4, 25° C., 2.0 hours, 0.4-0.5 mg/mL, pH 4-5 (bendamustine), pH 4 (Compound (1c)•HCl)
  % API: 81%
Formulation 4, 25° C., 2.0 hours, 0.9-1.1 mg/mL, pH 4-5 (bendamustine), pH 4 (Compound (1c)•HCl)
  % API: 81%
Formulation 4, 25° C., 2.0 hours, 1.8-2.1 mg/mL, pH 4-5 (bendamustine), pH 4 (Compound (1c)•HCl)
  % API: 75%
